Measurements as given in patent US9593149B2, “Amylin and calcitonin receptor agonist” (Novo Nordisk A/S, priority 2014, dated 2017).
≈ marks a conversion by molar mass, not a printed value. Peptide text beside a SMILES is read from it. * marks the point of attachment. C18 diacid = O=C(O)CCCCCCCCCCCCCCCCC(=O)*; Palmitoyl = CCCCCCCCCCCCCCCC(=O)*

Experiment: Assay (IV) determination of solubility
Type: physicochemical
Procedure: Assay (IV)—Determination of Solubility
The mimylin peptide was dissolved in water at ˜500 nmol/ml and mixed 1:1 with a series of buffers (100 mM glycylglycine pH 3.0, 100 mM glycylglycine pH 4.0, 100 mM glycylglycine pH 5.0, 100 mM bistrispropane pH 6.0, 100 mM bistrispropane pH 6.5, 100 mM bistrispropane pH 7.0, 100 mM bistrispropane pH 7.5, 100 mM bistrispropane pH 8.0).

Solubility (pH 3.0)	solubility at 18 h (pH 4.0)	solubility at 18 h (pH 5.0)	Solubility (pH 6.0)	Solubility (pH 6.5)	Solubility (pH 7.0)	Solubility (pH 7.5)	Solubility (pH 8.0)	Solubility (pH 4.0)	Solubility (pH 5.0)	SMILES
≧200 μM	94 µM (≈ 351 µg/mL)	35 µM (≈ 131 µg/mL)	≧200 μM	≧200 μM	≧200 μM	≧200 μM	≧200 μM	–	–	CC[C@H](C)[C@H](NC(=O)[C@H](CCC(=O)O)NC(=O)[C@H](CO)NC(=O)[C@H](C)NC(=O)[C@H](CCC(=O)O)NC(=O)CCCCCCCCCCCCCCCCC(=O)O)C(=O)N[C@@H](CO)C(=O)N[C@H](C(=O)N[C@@H](C)C(=O)N[C@@H](C)C(=O)N[C@@H](CC(C)C)C(=O)NCC(=O)N[C@@H](CCCNC(=N)N)C(=O)N[C@@H](CC(C)C)C(=O)N[C@@H](CO)C(=O)N[C@@H](C)C(=O)N[C@@H](CCC(=O)O)C(=O)N[C@@H](CC(C)C)C(=O)N[C@@H](Cc1cnc[nH]1)C(=O)N[C@@H](CCC(=O)O)C(=O)N[C@@H](CC(C)C)C(=O)N[C@@H](C)C(=O)N[C@H](C(=O)N[C@@H](CC(C)C)C(=O)N1CCC[C@H]1C(=O)N[C@@H](CCCNC(=N)N)C(=O)N[C@H](C(=O)N[C@@H](CCC(=O)O)C(=O)N[C@H](C(=O)NCC(=O)N1CCC[C@H]1C(=O)N[C@@H](CCC(=O)O)C(=O)N[C@@H](CO)C(=O)N1CCC[C@H]1C(N)=O)[C@@H](C)O)[C@@H](C)O)[C@@H](C)O)[C@@H](C)O [Ex. #8, [N-terminal(C18 diacid), 5I]mimylin] ({C18 diacid}-EASEISTAALGRLSAELHELATLPRTETGPESP-NH2)
≧200 μM	–	–	≧200 μM	≧200 μM	≧200 μM	≧200 μM	≧200 μM	≧200 μM	≧200 μM	CCCCCCCCCCCCCCCC(=O)N[C@@H](CCC(=O)O)C(=O)N[C@@H](C)C(=O)N[C@@H](CO)C(=O)N[C@@H](CCC(=O)O)C(=O)N[C@@H](CC(C)C)C(=O)N[C@@H](CO)C(=O)N[C@H](C(=O)N[C@@H](C)C(=O)N[C@@H](C)C(=O)N[C@@H](CC(C)C)C(=O)NCC(=O)N[C@@H](CCCNC(=N)N)C(=O)N[C@@H](CC(C)C)C(=O)N[C@@H](CO)C(=O)N[C@@H](C)C(=O)N[C@@H](CCC(=O)O)C(=O)N[C@@H](CC(C)C)C(=O)N[C@@H](Cc1cnc[nH]1)C(=O)N[C@@H](CCC(=O)O)C(=O)N[C@@H](CC(C)C)C(=O)N[C@@H](C)C(=O)N[C@H](C(=O)N[C@@H](CC(C)C)C(=O)N1CCC[C@H]1C(=O)N[C@@H](CCCNC(=N)N)C(=O)N[C@H](C(=O)N[C@@H](CCC(=O)O)C(=O)N[C@H](C(=O)NCC(=O)N1CCC[C@H]1C(=O)N[C@@H](CCC(=O)O)C(=O)N[C@@H](CO)C(=O)N1CCC[C@H]1C(N)=O)[C@@H](C)O)[C@@H](C)O)[C@@H](C)O)[C@@H](C)O [compound 7, [N-terminal(C16)]mimylin] (Palmitoyl-EASELSTAALGRLSAELHELATLPRTETGPESP-NH2)
